Reference: patent publication US7138361B2, “Herbicidal heterocycles” (E. I. du Pont de Nemours and Company, priority 2000, dated 2006)

Legend:
Assay in all cases: Test C postemergence
Format in all cases: in vivo
[1] = test system: Surinam grass (Brachiaria decumbens)
Summary of the method: (§1)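 Response scores (0 no effect to 100 complete control) came from visual comparison with untreated controls 12 to 14 days after treatment. Preemergence application was made to seeded soil; postemergence, to plants at the 1- to 4-leaf stage.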

[2] = test system: bermudagrass (Cynodon dactylon)
Summary of the method: as §1

[3] = test system: chickweed (Stellaria media)
Summary of the method: as §1

[4] = test system: cocklebur (Xanthium strumarium)
Summary of the method: as §1

[5] = test system: common ragweed (Ambrosia elatior)
Summary of the method: as §1

corn (Zea mays) = test system: corn (Zea mays)
Summary of the method: as §1

[6] = test system: crabgrass (Digitaria sanguinalis)
Summary of the method: as §1

[7] = test system: giant foxtail (Setaria faberii)
Summary of the method: as §1

[8] = test system: goosegrass (Eleusine indica)
Summary of the method: as §1

[9] = test system: johnsongrass (Sorghum halepense)
Summary of the method: as §1

[10] = test system: morningglory (Ipomoea hederacea)
Summary of the method: as §1

soybean (Glycine max) = test system: soybean (Glycine max)
Summary of the method: as §1

[11] = test system: velvetleaf (Abutilon theophrasti)
Summary of the method: as §1

[12] = test system: woolly cupgrass (Eriochloa villosa)
Summary of the method: as §1

[13] = test system: yellow nutsedge (Cyperus esculentus)
Summary of the method: as §1

[14] = Rate 125 g/ha, scale 0 to 100, 0 no effect, 100 complete control
[15] = Rate 250 g/ha, scale 0 to 100 (0 no effect, 100 complete control)
[16] = Rate 500 g/ha, scale 0 to 100 (0 no effect, 100 complete control)

## O=C1C(n2ccc(C3CCC3)n2)SCN1c1cccc(OC(F)(F)F)c1 (stereo not drawn) [Compound 38]
[1]; Rate 62 g/ha, scale 0 to 100
  Plant response rating, Surinam grass: 0
[1]; [14]
  Plant response rating, Surinam grass: 0
[1]; [15]
  Plant response rating, Surinam grass: 0
[1]; [16]
  Plant response rating, Surinam grass: 0
[2]; Rate 62 g/ha, scale 0 to 100
  Plant response rating, Bermudagrass: 0
[2]; [14]
  Plant response rating, Bermudagrass: 0
[2]; [15]
  Plant response rating, Bermudagrass: 30
[2]; [16]
  Plant response rating, Bermudagrass: 70
[3]; Rate 62 g/ha, scale 0 to 100
  Plant response rating, Chickweed: 0
[3]; [14]
  Plant response rating, Chickweed: 0
[3]; [15]
  Plant response rating, Chickweed: 0
[3]; [16]
  Plant response rating, Chickweed: 0
[4]; Rate 62 g/ha, scale 0 to 100
  Plant response rating, Cocklebur: 0
[4]; [14]
  Plant response rating, Cocklebur: 0
[4]; [15]
  Plant response rating, Cocklebur: 0
[4]; [16]
  Plant response rating, Cocklebur: 20
[5]; Rate 62 g/ha, scale 0 to 100
  Plant response rating, Ragweed, Common: 0
[5]; [14]
  Plant response rating, Ragweed, Common: 0
[5]; [15]
  Plant response rating, Ragweed, Common: 40
[5]; [16]
  Plant response rating, Ragweed, Common: 40
Corn (Zea mays); Rate 62 g/ha, scale 0 to 100
  Plant response rating, Corn: 0
Corn (Zea mays); [14]
  Plant response rating, Corn: 0
Corn (Zea mays); [15]
  Plant response rating, Corn: 0
Corn (Zea mays); [16]
  Plant response rating, Corn: 0
[6]; Rate 62 g/ha, scale 0 to 100
  Plant response rating, Crabgrass: 0
[6]; [14]
  Plant response rating, Crabgrass: 0
[6]; [15]
  Plant response rating, Crabgrass: 0
[6]; [16]
  Plant response rating, Crabgrass: 30
[7]; Rate 62 g/ha, scale 0 to 100
  Plant response rating, Foxtail, Giant: 0
[7]; [14]
  Plant response rating, Foxtail, Giant: 0
[7]; [15]
  Plant response rating, Foxtail, Giant: 0
[7]; [16]
  Plant response rating, Foxtail, Giant: 0
[8]; Rate 62 g/ha, scale 0 to 100
  Plant response rating, Goosegrass: 0
[8]; [14]
  Plant response rating, Goosegrass: 0
[8]; [15]
  Plant response rating, Goosegrass: 0
[8]; [16]
  Plant response rating, Goosegrass: 0
[9]; Rate 62 g/ha, scale 0 to 100
  Plant response rating, Johnsongrass: 0
[9]; [14]
  Plant response rating, Johnsongrass: 0
[9]; [15]
  Plant response rating, Johnsongrass: 0
[9]; [16]
  Plant response rating, Johnsongrass: 30
[10]; Rate 62 g/ha, scale 0 to 100
  Plant response rating, Morningglory: 0
[10]; [14]
  Plant response rating, Morningglory: 0
[10]; [15]
  Plant response rating, Morningglory: 0
[10]; [16]
  Plant response rating, Morningglory: 20
Soybean (Glycine max); Rate 62 g/ha, scale 0 to 100
  Plant response rating, Soybean: 0
Soybean (Glycine max); [14]
  Plant response rating, Soybean: 0
Soybean (Glycine max); [15]
  Plant response rating, Soybean: 0
Soybean (Glycine max); [16]
  Plant response rating, Soybean: 0
[11]; Rate 62 g/ha, scale 0 to 100
  Plant response rating, Velvetleaf: 0
[11]; [14]
  Plant response rating, Velvetleaf: 0
[11]; [15]
  Plant response rating, Velvetleaf: 0
[11]; [16]
  Plant response rating, Velvetleaf: 0
[12]; Rate 62 g/ha, scale 0 to 100
  Plant response rating, Cupgrass, Woolly: 0
[12]; [14]
  Plant response rating, Cupgrass, Woolly: 0
[12]; [15]
  Plant response rating, Cupgrass, Woolly: 0
[12]; [16]
  Plant response rating, Cupgrass, Woolly: 0
[13]; Rate 62 g/ha, scale 0 to 100
  Plant response rating, Nutsedge: 0
[13]; [14]
  Plant response rating, Nutsedge: 0
[13]; [15]
  Plant response rating, Nutsedge: 0
[13]; [16]
  Plant response rating, Nutsedge: 0

## CCC(C)c1ccn(C2CCN(c3ccc(C)c(OC)c3)C2=O)n1 (stereo not drawn) [Compound 80]
[1]; Rate 62 g/ha, scale 0 to 100
  Plant response rating, Surinam grass: 0
[1]; [14]
  Plant response rating, Surinam grass: 0
[1]; [15]
  Plant response rating, Surinam grass: 0
[1]; [16]
  Plant response rating, Surinam grass: 0
[2]; Rate 62 g/ha, scale 0 to 100
  Plant response rating, Bermudagrass: 0
[2]; [14]
  Plant response rating, Bermudagrass: 0
[2]; [15]
  Plant response rating, Bermudagrass: 0
[2]; [16]
  Plant response rating, Bermudagrass: 20
[3]; Rate 62 g/ha, scale 0 to 100
  Plant response rating, Chickweed: 20
[3]; [14]
  Plant response rating, Chickweed: 20
[3]; [15]
  Plant response rating, Chickweed: 30
[3]; [16]
  Plant response rating, Chickweed: 60
[4]; Rate 62 g/ha, scale 0 to 100
  Plant response rating, Cocklebur: 20
[4]; [14]
  Plant response rating, Cocklebur: 30
[4]; [15]
  Plant response rating, Cocklebur: 30
[4]; [16]
  Plant response rating, Cocklebur: 40
[5]; Rate 62 g/ha, scale 0 to 100
  Plant response rating, Ragweed, Common: 0
[5]; [14]
  Plant response rating, Ragweed, Common: 0
[5]; [15]
  Plant response rating, Ragweed, Common: 50
[5]; [16]
  Plant response rating, Ragweed, Common: 80
Corn (Zea mays); Rate 62 g/ha, scale 0 to 100
  Plant response rating, Corn: 0
Corn (Zea mays); [14]
  Plant response rating, Corn: 0
Corn (Zea mays); [15]
  Plant response rating, Corn: 0
Corn (Zea mays); [16]
  Plant response rating, Corn: 0
[6]; Rate 62 g/ha, scale 0 to 100
  Plant response rating, Crabgrass: 0
[6]; [14]
  Plant response rating, Crabgrass: 0
[6]; [15]
  Plant response rating, Crabgrass: 0
[6]; [16]
  Plant response rating, Crabgrass: 30
[7]; Rate 62 g/ha, scale 0 to 100
  Plant response rating, Foxtail, Giant: 0
[7]; [14]
  Plant response rating, Foxtail, Giant: 0
[7]; [15]
  Plant response rating, Foxtail, Giant: 0
[7]; [16]
  Plant response rating, Foxtail, Giant: 20
[8]; Rate 62 g/ha, scale 0 to 100
  Plant response rating, Goosegrass: 0
[8]; [14]
  Plant response rating, Goosegrass: 0
[8]; [15]
  Plant response rating, Goosegrass: 0
[8]; [16]
  Plant response rating, Goosegrass: 0
[9]; Rate 62 g/ha, scale 0 to 100
  Plant response rating, Johnsongrass: 0
[9]; [14]
  Plant response rating, Johnsongrass: 0
[9]; [15]
  Plant response rating, Johnsongrass: 0
[9]; [16]
  Plant response rating, Johnsongrass: 0
[10]; Rate 62 g/ha, scale 0 to 100
  Plant response rating, Morningglory: 50
[10]; [14]
  Plant response rating, Morningglory: 60
[10]; [15]
  Plant response rating, Morningglory: 60
[10]; [16]
  Plant response rating, Morningglory: 100
Soybean (Glycine max); Rate 62 g/ha, scale 0 to 100
  Plant response rating, Soybean: 50
Soybean (Glycine max); [14]
  Plant response rating, Soybean: 60
Soybean (Glycine max); [15]
  Plant response rating, Soybean: 70
Soybean (Glycine max); [16]
  Plant response rating, Soybean: 90
[11]; Rate 62 g/ha, scale 0 to 100
  Plant response rating, Velvetleaf: 20
[11]; [14]
  Plant response rating, Velvetleaf: 20
[11]; [15]
  Plant response rating, Velvetleaf: 20
[11]; [16]
  Plant response rating, Velvetleaf: 20
[12]; Rate 62 g/ha, scale 0 to 100
  Plant response rating, Cupgrass, Woolly: 0
[12]; [14]
  Plant response rating, Cupgrass, Woolly: 0
[12]; [15]
  Plant response rating, Cupgrass, Woolly: 0
[12]; [16]
  Plant response rating, Cupgrass, Woolly: 0
[13]; Rate 62 g/ha, scale 0 to 100
  Plant response rating, Nutsedge: 0
[13]; [14]
  Plant response rating, Nutsedge: 20
[13]; [15]
  Plant response rating, Nutsedge: 20
[13]; [16]
  Plant response rating, Nutsedge: 20

## CCOc1cc(N2CCC(n3ccc(C(C)(C)C)n3)C2=O)ccc1C (stereo not drawn) [Compound 106]
[1]; Rate 31 g/ha, scale 0 to 100
  Plant response rating, Surinam grass: 0
[1]; Rate 62 g/ha, scale 0 to 100
  Plant response rating, Surinam grass: 0
[1]; [14]
  Plant response rating, Surinam grass: 0
[1]; [15]
  Plant response rating, Surinam grass: 0
[2]; Rate 31 g/ha, scale 0 to 100
  Plant response rating, Bermudagrass: 0
[2]; Rate 62 g/ha, scale 0 to 100
  Plant response rating, Bermudagrass: 0
[2]; [14]
  Plant response rating, Bermudagrass: 0
[2]; [15]
  Plant response rating, Bermudagrass: 20
[4]; Rate 31 g/ha, scale 0 to 100
  Plant response rating, Cocklebur: 30
[4]; Rate 62 g/ha, scale 0 to 100
  Plant response rating, Cocklebur: 30
[4]; [14]
  Plant response rating, Cocklebur: 80
[4]; [15]
  Plant response rating, Cocklebur: 90
[5]; Rate 62 g/ha, scale 0 to 100
  Plant response rating, Ragweed, Common: 0
[5]; [14]
  Plant response rating, Ragweed, Common: 90
Corn (Zea mays); Rate 31 g/ha, scale 0 to 100
  Plant response rating, Corn: 0
Corn (Zea mays); Rate 62 g/ha, scale 0 to 100
  Plant response rating, Corn: 0
Corn (Zea mays); [14]
  Plant response rating, Corn: 0
Corn (Zea mays); [15]
  Plant response rating, Corn: 20
[6]; Rate 31 g/ha, scale 0 to 100
  Plant response rating, Crabgrass: 0
[6]; Rate 62 g/ha, scale 0 to 100
  Plant response rating, Crabgrass: 0
[6]; [14]
  Plant response rating, Crabgrass: 0
[6]; [15]
  Plant response rating, Crabgrass: 0
[7]; Rate 31 g/ha, scale 0 to 100
  Plant response rating, Foxtail, Giant: 0
[7]; Rate 62 g/ha, scale 0 to 100
  Plant response rating, Foxtail, Giant: 0
[7]; [14]
  Plant response rating, Foxtail, Giant: 0
[7]; [15]
  Plant response rating, Foxtail, Giant: 10
[8]; Rate 31 g/ha, scale 0 to 100
  Plant response rating, Goosegrass: 0
[8]; Rate 62 g/ha, scale 0 to 100
  Plant response rating, Goosegrass: 0
[8]; [14]
  Plant response rating, Goosegrass: 0
[8]; [15]
  Plant response rating, Goosegrass: 10
[9]; Rate 31 g/ha, scale 0 to 100
  Plant response rating, Johnsongrass: 0
[9]; Rate 62 g/ha, scale 0 to 100
  Plant response rating, Johnsongrass: 0
[9]; [14]
  Plant response rating, Johnsongrass: 0
[9]; [15]
  Plant response rating, Johnsongrass: 0
[10]; Rate 31 g/ha, scale 0 to 100
  Plant response rating, Morningglory: 90
[10]; Rate 62 g/ha, scale 0 to 100
  Plant response rating, Morningglory: 90
[10]; [14]
  Plant response rating, Morningglory: 90
[10]; [15]
  Plant response rating, Morningglory: 100
Soybean (Glycine max); Rate 31 g/ha, scale 0 to 100
  Plant response rating, Soybean: 70
Soybean (Glycine max); Rate 62 g/ha, scale 0 to 100
  Plant response rating, Soybean: 70
Soybean (Glycine max); [14]
  Plant response rating, Soybean: 70
Soybean (Glycine max); [15]
  Plant response rating, Soybean: 80
[11]; Rate 31 g/ha, scale 0 to 100
  Plant response rating, Velvetleaf: 30
[11]; Rate 62 g/ha, scale 0 to 100
  Plant response rating, Velvetleaf: 60
[11]; [14]
  Plant response rating, Velvetleaf: 60
[11]; [15]
  Plant response rating, Velvetleaf: 70
[12]; Rate 31 g/ha, scale 0 to 100
  Plant response rating, Cupgrass, Woolly: 0
[12]; Rate 62 g/ha, scale 0 to 100
  Plant response rating, Cupgrass, Woolly: 10
[12]; [14]
  Plant response rating, Cupgrass, Woolly: 30
[12]; [15]
  Plant response rating, Cupgrass, Woolly: 40
[13]; Rate 31 g/ha, scale 0 to 100
  Plant response rating, Nutsedge: 0
[13]; Rate 62 g/ha, scale 0 to 100
  Plant response rating, Nutsedge: 0
[13]; [14]
  Plant response rating, Nutsedge: 0
[13]; [15]
  Plant response rating, Nutsedge: 0
